Test results taken from US20260021138A1, “EXTRACELLULAR VESICLES AND PARTICLES FROM IMMUNE CELLS FOR PROVIDING ANTICANCER ACTIVITY” (LIETUVOS SVEIKATOS MOKSLU UNIVERSITETAS, priority 2022, published 2026).

How the values were obtained:
HROG-36 GBM 3D spheroids = assay: GBM cell migration area in 3D cell cultures; assay type: cell-based, human; settings: at higher concentrations
Protocol: For EV internalisation assessment in 2D GBM cell cultures, AF555-labelled EV solutions in PBS were applied to mixed glial and microglial cultures making a final concentration of 50 μg/mL of total EV protein. The cells were visualised by a fluorescent microscope Zeiss Axio Observer.Z1 (Carl Zeiss, Jena, Germany). For 3D GBM cell cultures, U-bottom 96-well plates were coated with a thin layer of 2% agarose prior to cell seeding. The cells were seeded at a density of 10000 per well, and the plate was centrifuged at 280×g for 7 min. […] The spheroid diameter was monitored under a light microscope on each day of culture (FIG. 17). […]
For EV efficiency on GBM cell migration in 3D GBM cell cultures, microscopic images of the cultures were taken at the start and at the end (72 hours), and the area covered by cells was calculated. […] Using the ImageJ software package, the area occupied by migrating spheroid cells was assessed, and the area of the spheroid at the initial time point was subtracted, as indicated in FIG. 24C. Representative images before and after treatment with U-937-derived macrophage and HMC-3 microglial EVs with and without DOX or TMZ and the same amount of free DOX are presented in FIG. 20-23, and quantitative assessment results—in FIG. 24.

[1] = test system: U-937-derived macrophage cell cultures; assay: Total cell number after poly(I:C) treatment, macrophages; assay type: cell-based, human; settings: 24 hours after the poly(I:C) treatment; data not shown
Protocol: CELL CULTURES FOR EV PRODUCTION. Human monocytes U-937 (ATCC, CRL1593.2) were maintained in RPMI-1640 medium with GlutaMAX (Thermo Fisher Scientific) supplemented with 10% exosome-free FBS (Thermo Fisher Scientific) and 1000 IU/mL penicillin-streptomycin (Gibco, Thermo Fisher Scientific). U-937 were grown in T150 (30 mL medium) tissue culture flasks at 37° C. (incubator New Brunswick Galaxy 170S, Eppendorf) until the settled cells covered 65-75% of the vial bottom. For induction of cell differentiation, the cell medium was changed to Macrophage-SFM medium (Thermo Fisher Scientific) with 200 nM phorbol myristate acetate (PMA, Merck) and the cells were left for 24 hours in a Soft Flask. After this, the medium was replaced with Macrophage-SFM without PMA and kept in the incubator for 48 hours.
For TLR-3 pathway stimulation, U-937-derived macrophages and HMC-3 cells were treated with 10 μg/mL poly(I:C) for 1 hour (FIG. 1A, C). For induction of large EV shedding, the stimulation time was increased to 8 hours (FIG. 1B, D). After the treatments, the large EVs were collected by a series of centrifugation. First, the media were centrifuged for 10 min at 800×g to remove cells and large cell debri. Then, the supernatant was centrifuged at 14000×g for 30 minutes to spin down large EVs. The EV pellets were resuspended in PBS by pipetting up and down several times. […]

[2] = test system: human microglial cultures (HMC-3); assay: Total cell number after poly(I:C) treatment, microglia; assay type: cell-based; settings: 24 hours after the poly(I:C) treatment; data not shown

Compound | GBM migration suppression, free drug versus loaded EVs (HROG-36 GBM 3D spheroids) | Total cell numbers decreased by [1] [%] | cell numbers significantly increased by [2] [%]
COc1cccc2c1C(=O)c1c(O)c3c(c(O)c1C2=O)C[C@@](O)(C(=O)CO)C[C@@H]3O[C@H]1C[C@H](N)[C@H](O)[C@H](C)O1 [DOX, doxorubicin] | more efficient |  | 
poly(I:C) |  | 15±2 | 22±7
